Experimental data reported in patent US8809335B2, “Pyrazolopyrimidine kinase inhibitors” (Vertex Pharmaceuticals Incorporated, priority 2010, dated 2014).

What was measured:
Assay type in all cases: biochemical
[1] = target: PKC alpha kinase (Homo sapiens, UniProt P17252); test: PKC alpha coupled-enzyme kinase assay (NADH consumption); conditions: 130 μM ATP, 4.5 nM PKC alpha, 30° C.
Protocol: An assay buffer solution was prepared which consisted of 100 mM HEPES (pH 7.5), 10 mM MgCl2, 25 mM NaCl, 0.1 mM EDTA, 100 μM CaCl2 and 0.01% Brij. An enzyme buffer containing reagents to final assay concentrations of 0.002% Triton X-100, 100 μg/mL Phosphatidylserine, 20 μg/mL Diacylglycerol, 360 μM NADH, 3 mM phosphoenolpyruvate, 70 μg/mL pyruvate kinase, 24 μg/mL lactate dehydrogenase, 2 mM DTT, 150 μM substrate peptide (RRRRRKGSFKRKA SEQ ID NO. 1) and 4.5 nM PKC alpha kinase was prepared in assay buffer. To 16 μL of this enzyme buffer, in a 384 well plate, was added 1 μL of VRT stock solution in DMSO. The mixture was allowed to equilibrate for 10 mins at 30° C. The enzyme reaction was initiated by the addition of 16 μL stock ATP solution prepared in assay buffer to a final assay concentration of 130 μM. Initial rate data was determined from the rate of change of absorbance at 340 nm (corresponding to stoichiometric consumption of NADH) using a Molecular Devices Spectramax plate reader (Sunnyvale, Calif.) over 15 mins at 30° C. […] Ki values were calculated from initial rate data by non-linear regression using the Prism software package (Prism 4.0a, Graphpad Software, San Diego, Calif.).

[2] = target: PKC delta kinase (Homo sapiens, UniProt Q05655); test: PKC delta coupled-enzyme kinase assay (NADH consumption); conditions: 150 μM ATP, 46 nM PKC delta, 30° C.
PKC delta kinase, sequence (Q05655 whole entry): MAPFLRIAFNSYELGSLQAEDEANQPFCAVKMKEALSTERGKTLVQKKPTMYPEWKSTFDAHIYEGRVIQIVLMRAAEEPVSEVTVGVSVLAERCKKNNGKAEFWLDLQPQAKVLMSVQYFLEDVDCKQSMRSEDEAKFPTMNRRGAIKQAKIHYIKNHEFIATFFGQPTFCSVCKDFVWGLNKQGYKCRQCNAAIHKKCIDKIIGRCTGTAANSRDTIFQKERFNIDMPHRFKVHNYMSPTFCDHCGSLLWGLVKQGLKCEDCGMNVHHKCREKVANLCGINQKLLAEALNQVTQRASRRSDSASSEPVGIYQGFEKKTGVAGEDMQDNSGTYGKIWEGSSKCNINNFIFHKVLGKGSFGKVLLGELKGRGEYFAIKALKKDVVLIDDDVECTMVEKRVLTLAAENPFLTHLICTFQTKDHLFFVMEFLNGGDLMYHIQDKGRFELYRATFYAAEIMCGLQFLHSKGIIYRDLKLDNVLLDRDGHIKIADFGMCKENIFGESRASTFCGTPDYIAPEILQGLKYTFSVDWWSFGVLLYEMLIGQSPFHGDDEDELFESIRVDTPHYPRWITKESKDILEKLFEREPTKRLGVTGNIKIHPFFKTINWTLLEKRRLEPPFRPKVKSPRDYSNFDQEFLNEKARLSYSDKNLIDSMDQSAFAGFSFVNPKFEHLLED
Protocol: An assay buffer solution was prepared which consisted of 100 mM HEPES (pH 7.5), 10 mM MgCl2, 25 mM NaCl, 0.1 mM EDTA and 0.01% Brij. An enzyme buffer containing reagents to final assay concentrations of 0.002% Triton X-100, 200 μg/mL Phosphatidylserine, 20 μg/mL Diacylglycerol, 360 μM NADH, 3 mM phosphoenolpyruvate, 70 μg/mL pyruvate kinase, 24 μg/mL lactate dehydrogenase, 2 mM DTT, 150 μM substrate peptide (ERMRPRKRQGSVRRRV SEQ ID NO. 2) and 46 nM PKC delta kinase was prepared in assay buffer. To 16 μL of this enzyme buffer, in a 384 well plate, was added 1 μL of VRT stock solution in DMSO. The mixture was allowed to equilibrate for 10 mins at 30° C. The enzyme reaction was initiated by the addition of 16 μL stock ATP solution prepared in assay buffer to a final assay concentration of 150 μM. Initial rate data was determined from the rate of change of absorbance at 340 nm (corresponding to stoichiometric consumption of NADH) using a Molecular Devices Spectramax plate reader (Sunnyvale, Calif.) over 15 mins at 30° C. For each Ki determination 12 data points covering the VRT concentration range of 0-20 μM were obtained in duplicate (DMSO stocks were prepared from an initial 10 mM VRT stock with subsequent 1:2 serial dilutions). Ki values were calculated from initial rate data by non-linear regression using the Prism software package (Prism 4.0a, Graphpad Software, San Diego, Calif.).

[3] = target: PKC theta kinase (Homo sapiens, UniProt Q04759); test: PKC theta coupled-enzyme kinase assay (NADH consumption); conditions: 240 μM ATP, 18 nM PKC theta, 30° C.
PKC theta kinase, sequence (Q04759 whole entry): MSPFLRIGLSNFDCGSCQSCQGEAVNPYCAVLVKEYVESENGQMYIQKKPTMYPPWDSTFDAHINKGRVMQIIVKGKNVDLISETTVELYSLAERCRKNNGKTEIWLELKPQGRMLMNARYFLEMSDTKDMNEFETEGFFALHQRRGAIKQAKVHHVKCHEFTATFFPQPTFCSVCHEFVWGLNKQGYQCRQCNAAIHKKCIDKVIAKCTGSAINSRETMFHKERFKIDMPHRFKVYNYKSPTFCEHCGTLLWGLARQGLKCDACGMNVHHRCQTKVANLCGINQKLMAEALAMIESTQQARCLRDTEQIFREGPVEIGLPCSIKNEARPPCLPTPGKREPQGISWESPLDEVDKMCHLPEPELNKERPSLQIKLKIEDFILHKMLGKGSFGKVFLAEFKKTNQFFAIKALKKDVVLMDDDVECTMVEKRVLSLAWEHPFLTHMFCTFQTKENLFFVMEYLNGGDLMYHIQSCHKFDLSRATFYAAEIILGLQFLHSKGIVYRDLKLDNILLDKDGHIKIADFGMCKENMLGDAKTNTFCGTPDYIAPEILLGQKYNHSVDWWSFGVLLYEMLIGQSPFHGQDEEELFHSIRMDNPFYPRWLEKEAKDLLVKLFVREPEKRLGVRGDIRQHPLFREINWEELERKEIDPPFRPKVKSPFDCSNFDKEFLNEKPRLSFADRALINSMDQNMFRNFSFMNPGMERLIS
Protocol: An assay buffer solution was prepared which consisted of 100 mM HEPES (pH 7.5), 10 mM MgCl2, 25 mM NaCl, 0.1 mM EDTA and 0.01% Brij. An enzyme buffer containing reagents to final assay concentrations of 0.00001% Triton X-100, 200 μg/mL Phosphatidylserine, 20 μg/mL Diacylglycerol, 360 μM NADH, 3 mM phosphoenolpyruvate, 70 μg/mL pyruvate kinase, 24 μg/mL lactate dehydrogenase, 2 mM DTT, 100 μM substrate peptide (ERMRPRKRQGSVRRRV SEQ ID NO. 1) and 18 nM PKC theta kinase was prepared in assay buffer. To 60 μL of this enzyme buffer, in a 384 well plate, was added 2 μL of VRT stock solution in DMSO. The mixture was allowed to equilibrate for 10 mins at 30° C. The enzyme reaction was initiated by the addition of 5 μL stock ATP solution prepared in assay buffer to a final assay concentration of 240 μM. Initial rate data was determined from the rate of change of absorbance at 340 nm (corresponding to stoichiometric consumption of NADH) using a Molecular Devices Spectramax plate reader (Sunnyvale, Calif.) over 15 mins at 30° C. For each Ki determination 12 data points covering the VRT concentration range of 0-20 μM were obtained in duplicate (DMSO stocks were prepared from an initial 10 mM VRT stock with subsequent 1:2 serial dilutions). Ki values were calculated from initial rate data by non-linear regression using the Prism software package (Prism 4.0a, Graphpad Software, San Diego, Calif.).

Ki [1]	Ki [2]	Ki [3]	SMILES
< 2800 nM	< 500 nM	< 1 nM	CC(C)[C@@](C)(O)[C@@H]1CN(c2nc(-c3n[nH]c4ncncc34)c(F)cc2F)CCN1 [Compound 2, (R)-2-((S)-4-(3,5-difluoro-6-(1H-pyrazolo[3,4-d]pyrimidin-3-yl)pyridin-2-yl)piperazin-2-yl)-3-methylbutan-2-ol]
> 1250 nM	> 1250 nM	< 2800 nM	CCOc1ncnc2[nH]nc(-c3cccc(N4CCNC(CC(C)C)C4)n3)c12 (stereo not drawn) [Compound 1, 4-ethoxy-3-(6-(3-isobutylpiperazin-1-yl)pyridin-2-yl)-1H-pyrazolo[3,4-d]pyrimidine]
